In ChEMBL document CHEMBL4813957, “Antitubercular properties of thiazolidin-4-ones - A review” (Eur J Med Chem, 2021):
Converted amounts (≈) assume the structure as drawn.

Tested on: Mycobacterium tuberculosis variant bovis
Assay: Antimycobacterial activity against Mycobacterium bovis BCG ATCC 35743 measured on 8th to 12th day by nitrate reductase assay
Format: functional
Conditions: BCG str. ATCC 35743, time 8-12 day

Row | SMILES | IC90
1 | Cc1cc(NS(=O)(=O)c2ccc(N3C(=O)CSC3c3c(Cl)cccc3Cl)cc2)no1 (stereo not given) | 0.058 µg/mL (≈ 0.12 µM)
2 | Cc1cc(NS(=O)(=O)c2ccc(N3C(=O)CSC3c3ccc(C(F)(F)F)cc3)cc2)no1 (stereo not given) | 0.058 µg/mL (≈ 0.12 µM)
3 | Cc1cc(NS(=O)(=O)c2ccc(N3C(=O)CSC3c3ccc(Cl)cc3)cc2)no1 (stereo not given) | 0.058 µg/mL (≈ 0.129 µM)
4 | Cc1cc(NS(=O)(=O)c2ccc(N3C(=O)CSC3c3ccc(F)cc3)cc2)no1 (stereo not given) | 0.058 µg/mL (≈ 0.134 µM)
5 | Cc1cc(NS(=O)(=O)c2ccc(N3C(=O)CSC3c3c(F)cccc3F)cc2)no1 (stereo not given) | 0.058 µg/mL (≈ 0.128 µM)
